# Laboratory results: patent US20250194651A1, “STEVIOL GLYCOSIDE CONCENTRATES AND HIGHLY SOLUBLE STEVIOL GLYCOSIDES” (CARGILL, INCORPORATED, priority 2022, published 2025)
# Read-outs that look alike come from different tables or passages of the source.
# Tests used:
# [1] = Aqueous solubility (background values); format: physicochemical; details: heating in near boiling water for 2 hours
# [2] = cited from earlier work
# [3] = Initial solubility in aqueous solution (visual dissolution on heating); format: physicochemical
# Method: (§1) Solutions were prepared by mixing one or more steviol glycoside component in purified water at ambient temperature. Solubility enhancers, preservatives, or ethanol were included only where expressly indicated and, when used, were added to the initial mixture prior to heating and dissolution. The mixtures were premixed and then subsequently heated via heat block or oven. Solutions took approximately one or two minutes to reach the target temperature, and then were maintained at the target temperature at least until complete dissolution of solids. Dissolution of solids was monitored visually during heating. After the heating period, fully dissolved solutions were permitted to cool to room temperature and were monitored for initial precipitation.
# Various individual steviol glycosides were tested to evaluate initial solubility in aqueous solution as well as the long-term stability in solution. Ingredients were combined in purified water at room temperature then heated to 85° C. with a heating block to effect dissolution. […]
# [4] = Long-term solution stability (visual crystallization/precipitation time); format: physicochemical; details: for time until solution crashes out: solution of 1%
# Method: as §1
# Solutions were further monitored for stability over periods of hours, days, weeks, and longer. Multiple techniques were utilized to evaluate stability. […] Solutions were also evaluated by recovering dissolved solids and then calculating percent recovery. If necessary, the solutions were filtered to remove undissolved material to assure that percent recovery reflected only dissolved steviol glycosides.
# The rebaudioside M and A blend was further observed hourly for the first several hours, then monitored daily to evaluate long-term stability. Steviol glycoside binary blends in aqueous solvent (1%) were prepared from as an […].
# Amounts of rebaudioside M and rebaudioside A in varying ratios were combined with purified water at room temperature and then heated to 85° C. with a heating block to effect dissolution. For example, for batches formulated to provide a concentration of about 10% DS, approximately 25 mg of each of rebaudioside M and rebaudioside A were dissolved in 500 μL of purified water. Samples were monitored until crystallization occurred or for at least 40 days. Solutions that remained clear and free of visible precipitation are identified in the tables below.
# Steviol glycoside solutions of rebaudioside M and rebaudioside A were tested to determine if non-aqueous solvent was beneficial or detrimental to solution stability. Ingredients were combined in purified water at room temperature then heated to 85° C. with a heating block to effect dissolution. The solution was allowed to cool to ambient temperature, and then visually monitored for precipitation.
# [5] = conventional formulations, aqueous solution at 25° C., WO 2017/120480 A1
# [6] = 0.49% DS, after dissolution at 85° C.
molecule,measurement,setting,value
"C=C1C[C@@]23CC[C@H]4[C@@](C)(CCC[C@@]4(C)C(=O)O[C@@H]4O[C@H](CO)[C@@H](O)[C@H](O)[C@H]4O[C@@H]4O[C@H](CO)[C@@H](O)[C@H](O)[C@H]4O)[C@@H]2CC[C@]1(O[C@@H]1O[C@H](CO)[C@@H](O)[C@H](O[C@@H]2O[C@H](CO)[C@@H](O)[C@H](O)[C@H]2O)[C@H]1O[C@@H]1O[C@H](CO)[C@@H](O)[C@H](O)[C@H]1O)C3 [D, rebaudioside D]",concentration temporarily dissolved,[1],0.8 wt %
same,dissolved content in aqueous solution,[2]; [5],about 0.05 wt %
same,dissolution,"[3]; 1% DS in water, heated to 85° C. for 20 minutes, cooled to room temperature (FIG. 1)",failed to dissolve
same,dissolution,"[3]; 1% DS in water, heated to 85° C. for 20 minutes, cooled to room temperature (FIG. 1), listed as Reb D",cannot achieve dissolution
same,Crystallization Time,"[4]; 0.48% DS (Reb D), 0.5% DS (Total)",<2 h
same,Crystallization Time,"[4]; 0.48% DS, after dissolution at 85° C.",<2 h
"C=C1C[C@@]23CC[C@H]4[C@@](C)(CCC[C@@]4(C)C(=O)O[C@@H]4O[C@H](CO)[C@@H](O)[C@H](O)[C@H]4O[C@@H]4O[C@H](CO)[C@@H](O)[C@H](O)[C@H]4O)[C@@H]2CC[C@]1(O[C@@H]1O[C@H](CO)[C@@H](O)[C@H](O)[C@H]1O[C@@H]1O[C@H](CO)[C@@H](O)[C@H](O)[C@H]1O)C3 [E, rebaudioside E]",Crystallization Time,[4]; [6],336 h
"C=C1C[C@@]23CC[C@H]4[C@@](C)(CCC[C@@]4(C)C(=O)O[C@@H]4O[C@H](CO)[C@@H](O)[C@H](O)[C@H]4O[C@@H]4O[C@@H](C)[C@H](O)[C@@H](O)[C@H]4O)[C@@H]2CC[C@]1(O[C@@H]1O[C@H](CO)[C@@H](O)[C@H](O[C@@H]2O[C@H](CO)[C@@H](O)[C@H](O)[C@H]2O)[C@H]1O[C@@H]1O[C@H](CO)[C@@H](O)[C@H](O)[C@H]1O)C3 [J, rebaudioside J]",Soluble?,[3],Y
same,dissolution,"[3]; 1% solution, purified water, heated to 85° C.",failed to dissolve
same,Crystallization Time,"[4]; 0.53% DS, after dissolution at 85° C.",<2 h
"C=C1C[C@@]23CC[C@H]4[C@@](C)(CCC[C@@]4(C)C(=O)O[C@@H]4O[C@H](CO)[C@@H](O)[C@H](O[C@@H]5O[C@H](CO)[C@@H](O)[C@H](O)[C@H]5O)[C@H]4O[C@@H]4O[C@H](CO)[C@@H](O)[C@H](O)[C@H]4O)[C@@H]2CC[C@]1(O[C@@H]1O[C@H](CO)[C@@H](O)[C@H](O[C@@H]2O[C@H](CO)[C@@H](O)[C@H](O)[C@H]2O)[C@H]1O[C@@H]1O[C@H](CO)[C@@H](O)[C@H](O)[C@H]1O)C3 [M (RM01), rebaudioside M]",Soluble?,[3],Y
same,Crystallization Time,"[4]; 0.33% DS, after dissolution at 85° C.",<72 h
"C=C1C[C@@]23CC[C@H]4[C@@](C)(CCC[C@@]4(C)C(=O)O[C@@H]4O[C@H](CO)[C@@H](O)[C@H](O[C@@H]5O[C@H](CO)[C@@H](O)[C@H](O)[C@H]5O)[C@H]4O[C@@H]4O[C@@H](C)[C@H](O)[C@@H](O)[C@H]4O)[C@@H]2CC[C@]1(O[C@@H]1O[C@H](CO)[C@@H](O)[C@H](O[C@@H]2O[C@H](CO)[C@@H](O)[C@H](O)[C@H]2O)[C@H]1O[C@@H]1O[C@H](CO)[C@@H](O)[C@H](O)[C@H]1O)C3 [N, rebaudioside N]",Soluble?,[3],Y
same,Crystallization Time,[4]; [6],<1 h
C=C1C[C@@]23CC[C@H]4[C@@](C)(CCC[C@@]4(C)C(=O)O[C@@H]4O[C@H](CO)[C@@H](O)[C@H](O)[C@H]4O)[C@@H]2CC[C@]1(O[C@@H]1O[C@H](CO)[C@@H](O)[C@H](O[C@@H]2O[C@H](CO)[C@@H](O)[C@H](O)[C@H]2O)[C@H]1O[C@@H]1O[C@H](CO)[C@@H](O)[C@H](O)[C@H]1O)C3 [rebaudioside A],dissolved content in aqueous solution,"[2]; purified, in water at 25° C., WO 2012/082587 A2",about 0.8 wt %
same,"appearance (FIG. 3, bottom)","[4]; about 10% DS, only rebaudioside A",intense precipitation
same,time until solution crashes out,[4],≤ 72 h
C=C1C[C@@]23CC[C@H]4[C@@](C)(CCC[C@@]4(C)C(=O)O[C@@H]4O[C@H](CO)[C@@H](O)[C@H](O[C@@H]5O[C@H](CO)[C@@H](O)[C@H](O)[C@H]5O)[C@H]4O[C@@H]4O[C@H](CO)[C@@H](O)[C@H](O)[C@H]4O)[C@@H]2CC[C@]1(O[C@@H]1O[C@H](CO)[C@@H](O)[C@H](O[C@@H]2O[C@H](CO)[C@@H](O)[C@H](O)[C@H]2O)[C@H]1O[C@@H]1O[C@H](CO)[C@@H](O)[C@H](O)[C@H]1O)C3 [rebaudioside M],dissolved content in aqueous solution,[2]; [5],about 0.1 wt %
same,dissolved concentration in aqueous solution,"[2]; room temperature, freeze or spray dried, WO '480, stability over time not reported",0.5 wt %
same,time until solution crashes out,[4],less than an hour
rebaudioside B,Crystallization Time,"[4]; 0.47% DS, heated to 85° C.",Immediate
